Patent US20180228799A1, “Treatment for Neurological and Mental Disorders” (PSYCHOGENICS, INC., priority 2008, published 2018)
“Also recorded” adds a separate entry of the source.

Assays:
[1] = tested on: symptoms of ADHD in adults; experiment: Clinical Global Impressions-Improvement (CGI-I), same trial; type: in vivo, human; details: 14 days; for CGI-I, percent of subjects showing improvement: b136 all subjects
Method: This double-blind, multiple-dose, placebo-controlled, crossover study was conducted to assess the effects of 14 days of oral eltoprazine treatment in 48 adults with ADHD. Subjects eligible for study enrollment were to have met Diagnostic and Statistical Manual of Mental Disorders, Fourth Edition, Text Revision (DSM-IV-TR) criteria for ADHD. Assessment was to be made by clinical history, a Structured Clinical Interview for DSM-IV Axis Disorders-Research Version (SCID-RV), and a Conners' Adult ADHD Diagnostic Interview for DSM IV (CAADID).
Oral doses of eltoprazine hydrochloride were 5 mg/day or 10 mg/day for 14 consecutive days (i.e., 2.5 or 5 mg twice daily (bid), respectively). Eltoprazine hydrochloride was administered in gelatin capsules with calcium hydrogen phosphate, 2H2O, maize starch NF, polyethylene glycol 6000 NF and magnesium stearate NF as excipients.
Secondary endpoints were evaluated with the Clinical Global Impressions-Improvement (CGI-I) and Continuous Performance Test. (CPT). The CGI-I test is used to determine the […] of improvement.

rats = experiment: Radial arm maze, scopolamine-induced working memory deficit; type: in vivo; details: eltoprazine 0.3 mg/kg PO + scopolamine 0.5 mg/kg IP, ANOVA, FIG. 2
Method: Several mazes, such as the radial arm maze (RAM) have been adapted to assess working memory in rodents. The RAM consists of eight long runways radiating out in a circle from a central compartment. In the RAM rats learn to retrieve food rewards from all or a sub-set of the arms. Working memory is assessed by measuring entries into previously baited arms within a given trial. […] Hippocampal lesions produce deficits both in adults and in the neonatal hippocampal lesion model of schizophrenia.
For training, food deprived rats were placed in an enclosed cylinder in the center of the maze for 20 s, prior to being allowed to explore the maze by removing the cylinder. Each radial arm is baited with a food reward. Animals were given a maximum of 5 minutes to retrieve all food rewards. This training continued once daily for three weeks until animals met the performance criteria for successful acquisition of the task.
Four parameters were recorded to assess the performance of the rat: (1) the number of errors, which is defined as entering an arm that had already been entered, (2) the number of consecutive entries into un-visited arms before the first error occurred (entries to repeat), (3) latency to complete the task, and (4) the total number of arm entries before all food in the eight arms is collected or the maximum session duration is reached. […]

[2] = tested on: prefrontal cortex (PFC) of C57 mice; experiment: Microdialysis in the prefrontal cortex; type: in vivo; details: 3, 10 and 30 mg/kg, six mice per dose group
Method: Microdialysis probes were implanted in the prefrontal cortex; coordinates were: AP+2.0 mm, ML+0.7 mm (under an 8° angle) from bregma, DV −3.3 mm from the dura, with the tooth-bar also set at 0 mm. The active dialysis surface length of the membrane was 2 mm. Microdialysis experiments started 48 h (prefrontal cortex) after surgery. Ringer solution was perfused through the microdialysis probe at a flow at 1.166 μl/min using a high precision pump (KdScientific 220). Mouse dual channel swivels (Type 375/D/22QM, Instech Laboratories, Inc.) connected to PEEK-tubing (ID 0.005,″ OD 0.020″) were used to allow unrestrained movements of the mice. Samples were collected by hand 2.5 h after the start of the dialysis probe perfusion to obtain stable baseline values for the monoamines and their metabolites. The average of the first four samples was calculated and represents the baseline level. Samples were collected every 30 min were analyzed by HPLC with electrochemical detection.
Six mice per dose group were treated with vehicle or eltoprazine at 3 mg/kg, 10 mg/kg and 30 mg/kg.

dopamine receptors = details: Schipper et al.; read-out: Ki (affinity for dopamine receptors); cited from earlier work
5-HT1D receptor = details: compared with serotonin; Schipper et al.; cited from earlier work
5-HT1B = 5-HT1B (Homo sapiens, UniProt P28222); details: Schipper et al.; cited from earlier work
Sequence of 5-HT1B (P28222 whole entry, species assumed): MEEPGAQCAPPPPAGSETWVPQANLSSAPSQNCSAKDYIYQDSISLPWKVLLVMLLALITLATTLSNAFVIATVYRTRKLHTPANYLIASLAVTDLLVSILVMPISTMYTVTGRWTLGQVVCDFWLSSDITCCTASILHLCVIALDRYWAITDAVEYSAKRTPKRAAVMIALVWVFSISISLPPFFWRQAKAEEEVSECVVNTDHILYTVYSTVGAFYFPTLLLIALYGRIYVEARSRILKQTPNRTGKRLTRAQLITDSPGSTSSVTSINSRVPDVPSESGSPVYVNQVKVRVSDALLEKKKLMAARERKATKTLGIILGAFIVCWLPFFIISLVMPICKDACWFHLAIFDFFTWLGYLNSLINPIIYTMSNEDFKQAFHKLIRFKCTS

5-HT2C receptors = molecular target: T1, 5-HT2C receptors (Homo sapiens, UniProt P28335); details: relative to 5-HT1A, 5-HT1B; Schipper et al.; cited from earlier work
T1 sequence (P28335 33-458): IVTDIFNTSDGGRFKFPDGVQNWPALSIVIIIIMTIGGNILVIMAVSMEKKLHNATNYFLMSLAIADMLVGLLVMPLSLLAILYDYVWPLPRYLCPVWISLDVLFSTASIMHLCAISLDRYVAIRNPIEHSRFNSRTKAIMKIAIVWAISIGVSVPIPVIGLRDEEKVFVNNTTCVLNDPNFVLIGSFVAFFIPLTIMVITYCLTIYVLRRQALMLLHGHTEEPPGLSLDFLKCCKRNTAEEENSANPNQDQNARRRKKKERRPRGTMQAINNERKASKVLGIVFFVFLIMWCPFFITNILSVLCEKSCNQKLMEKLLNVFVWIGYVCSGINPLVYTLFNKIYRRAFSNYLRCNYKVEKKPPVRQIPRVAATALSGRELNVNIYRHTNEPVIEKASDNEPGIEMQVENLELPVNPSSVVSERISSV

5-HT1A/1B receptor = details: cited from earlier work

c1cc2c(c(N3CCNCC3)c1)OCCO2 [Eltoprazine, 1-(2,3-dihydro-1,4-benzodioxanyl-5-yl) piperazine]
CGI-I Mean Improvement (S.D.) ([1]; 5 mg/day, n = 38): 2.6 (1.2) | CGI-I, Number of Patients Improved ([1]; 5 mg/day, n = 38): 26 | CGI-I, Number of Patients Not Improved ([1]; 5 mg/day, n = 38): 12 | CGI-I, percent of subjects showing improvement ([1]; 5 mg/day, b141/b146 subgroup with baseline score >40): 62% | CGI-I Mean Improvement (S.D.) ([1]; 10 mg/day, n = 37): 2.7 (0.9) | CGI-I, Number of Patients Improved ([1]; 10 mg/day, n = 37): 30 | CGI-I, Number of Patients Not Improved ([1]; 10 mg/day, n = 37): 7 | CGI-I, percent of subjects showing improvement ([1]; 10 mg/day, b141 subgroup with baseline score >40): 71% | CGI reduction in severity score ([1]; more severely affected population (baseline score >40), 5 mg/day): 14% | Effect on scopolamine-induced decrease of entries to repeat (rats): attenuated | Release of dopamine in the PFC ([2]; FIG. 4): significant release; also recorded: dose-related increase | Release of the dopamine metabolite DOPAC in the PFC ([2]; FIG. 5): dose-related increase | Release of the metabolite HVA in the PFC ([2]; FIG. 6): dose-related increase | Release of norepinephrine in the PFC ([2]; FIG. 7): significant release; also recorded: dose-related increase | Ki (dopamine receptors): > 1000 nM | Binding affinity for the 5-HT1D receptor (5-HT1D receptor): relatively low affinity | Binding affinity for 5-HT1B (5-HT1B): roughly equipotent affinity | Binding affinity for 5-HT2C receptors (5-HT2C receptors): somewhat lower affinity | Functional mode of action (5-HT1A/1B receptor): mixed 5-HT1A/1B receptor agonist
